We go through two compounds from ChEMBL document CHEMBL1150682, “Modiolides A and B, two new 10-membered macrolides from a marine-derived fungus” (2003).

≈ marks a conversion by molar mass, not a printed value.

In experiment [1] the test system is Micrococcus luteus. Kind of experiment: Antimicrobial activity against Micrococcus luteus. The class given is functional.
Experiment [2] deals with Neurospora crassa. Briefly: Antimicrobial activity against Neurospora crassa. The class given is functional.

For orientation: MIC means the lowest concentration that inhibits growth of the organism. Take `C[C@@H]1C[C@H](O)/C=C/[C@@H](O)/C=C\C(=O)O1` [MODIOLIDE A]: the MIC turned out to be 16.7 µg/mL (≈ 84.3 µM) in experiment [1] and 33.3 µg/mL (≈ 168 µM) in experiment [2].
For `C[C@@H]1CC/C=C/[C@@H](O)/C=C\C(=O)O1` [MODIOLIDE B], in that order: 16.7 µg/mL (≈ 91.6 µM) and 33.3 µg/mL (≈ 183 µM).
